Assay [1] concerns the target Casein kinase I isoform gamma-1 (Homo sapiens) (UniProt Q9HCP0). Nature of the assay: Inhibition of CSNK1G1 (unknown origin) assessed as residual activity at 1000 nM by KINOMEscan analysis relative to control.
For assay [2], the target named is Serine/threonine-protein kinase MRCK beta (Homo sapiens) (UniProt Q9Y5S2). Nature of the assay: Inhibition of MRCKB (unknown origin) assessed as residual activity at 1000 nM by KINOMEscan analysis relative to control.
In assay [3] the target is T1, cGMP-dependent protein kinase 1 (Homo sapiens) (UniProt Q13976).
T1 sequence (whole entry): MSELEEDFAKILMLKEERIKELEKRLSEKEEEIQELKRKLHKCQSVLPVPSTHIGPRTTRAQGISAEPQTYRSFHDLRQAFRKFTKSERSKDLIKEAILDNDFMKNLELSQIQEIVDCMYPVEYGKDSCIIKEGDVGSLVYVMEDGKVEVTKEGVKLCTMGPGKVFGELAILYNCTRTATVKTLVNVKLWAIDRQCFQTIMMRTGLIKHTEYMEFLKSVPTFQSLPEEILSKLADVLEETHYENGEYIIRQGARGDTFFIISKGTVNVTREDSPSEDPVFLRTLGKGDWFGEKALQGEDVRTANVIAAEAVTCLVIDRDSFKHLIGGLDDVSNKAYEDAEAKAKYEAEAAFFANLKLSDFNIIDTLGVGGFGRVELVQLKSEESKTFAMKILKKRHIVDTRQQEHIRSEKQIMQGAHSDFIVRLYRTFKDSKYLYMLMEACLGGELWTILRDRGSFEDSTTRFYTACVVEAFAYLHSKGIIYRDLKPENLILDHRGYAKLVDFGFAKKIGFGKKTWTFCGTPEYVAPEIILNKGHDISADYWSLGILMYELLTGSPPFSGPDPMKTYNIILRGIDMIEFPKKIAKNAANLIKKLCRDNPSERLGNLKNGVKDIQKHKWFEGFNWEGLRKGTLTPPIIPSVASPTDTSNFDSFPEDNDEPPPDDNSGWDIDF
Nature of the assay: Inhibition of PRKG1 (unknown origin) assessed as residual activity at 1000 nM by KINOMEscan analysis relative to control.

In assay [4] the target is Serine/threonine-protein kinase 32A (Homo sapiens) (UniProt Q8WU08). Nature of the assay: Inhibition of YANK1 (unknown origin) assessed as residual activity at 1000 nM by KINOMEscan analysis relative to control.
In assay [5] the target is T2, Serine/threonine-protein kinase ULK3 (Homo sapiens) (UniProt Q6PHR2).
T2 sequence (whole entry): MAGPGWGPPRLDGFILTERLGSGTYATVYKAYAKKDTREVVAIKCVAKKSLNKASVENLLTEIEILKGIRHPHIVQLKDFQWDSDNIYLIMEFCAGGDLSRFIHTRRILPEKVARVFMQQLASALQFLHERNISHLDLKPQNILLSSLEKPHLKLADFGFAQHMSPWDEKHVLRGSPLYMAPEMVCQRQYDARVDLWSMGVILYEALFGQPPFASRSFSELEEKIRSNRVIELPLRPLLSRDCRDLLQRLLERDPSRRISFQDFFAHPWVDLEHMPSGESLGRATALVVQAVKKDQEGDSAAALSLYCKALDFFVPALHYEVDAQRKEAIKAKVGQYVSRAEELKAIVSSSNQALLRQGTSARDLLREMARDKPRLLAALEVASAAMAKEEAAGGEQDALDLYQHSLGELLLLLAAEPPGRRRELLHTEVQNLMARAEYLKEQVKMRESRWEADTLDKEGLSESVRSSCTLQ
Nature of the assay: Inhibition of ULK3 (unknown origin) assessed as residual activity at 1000 nM by KINOMEscan analysis relative to control.

The target in assay [6] is Myosin-IIIa (Homo sapiens) (UniProt Q8NEV4). Nature of the assay: Inhibition of MYO3A (unknown origin) assessed as residual activity at 1000 nM by KINOMEscan analysis relative to control.
Chain of Myosin-IIIa (Homo sapiens) (Q8NEV4 whole entry): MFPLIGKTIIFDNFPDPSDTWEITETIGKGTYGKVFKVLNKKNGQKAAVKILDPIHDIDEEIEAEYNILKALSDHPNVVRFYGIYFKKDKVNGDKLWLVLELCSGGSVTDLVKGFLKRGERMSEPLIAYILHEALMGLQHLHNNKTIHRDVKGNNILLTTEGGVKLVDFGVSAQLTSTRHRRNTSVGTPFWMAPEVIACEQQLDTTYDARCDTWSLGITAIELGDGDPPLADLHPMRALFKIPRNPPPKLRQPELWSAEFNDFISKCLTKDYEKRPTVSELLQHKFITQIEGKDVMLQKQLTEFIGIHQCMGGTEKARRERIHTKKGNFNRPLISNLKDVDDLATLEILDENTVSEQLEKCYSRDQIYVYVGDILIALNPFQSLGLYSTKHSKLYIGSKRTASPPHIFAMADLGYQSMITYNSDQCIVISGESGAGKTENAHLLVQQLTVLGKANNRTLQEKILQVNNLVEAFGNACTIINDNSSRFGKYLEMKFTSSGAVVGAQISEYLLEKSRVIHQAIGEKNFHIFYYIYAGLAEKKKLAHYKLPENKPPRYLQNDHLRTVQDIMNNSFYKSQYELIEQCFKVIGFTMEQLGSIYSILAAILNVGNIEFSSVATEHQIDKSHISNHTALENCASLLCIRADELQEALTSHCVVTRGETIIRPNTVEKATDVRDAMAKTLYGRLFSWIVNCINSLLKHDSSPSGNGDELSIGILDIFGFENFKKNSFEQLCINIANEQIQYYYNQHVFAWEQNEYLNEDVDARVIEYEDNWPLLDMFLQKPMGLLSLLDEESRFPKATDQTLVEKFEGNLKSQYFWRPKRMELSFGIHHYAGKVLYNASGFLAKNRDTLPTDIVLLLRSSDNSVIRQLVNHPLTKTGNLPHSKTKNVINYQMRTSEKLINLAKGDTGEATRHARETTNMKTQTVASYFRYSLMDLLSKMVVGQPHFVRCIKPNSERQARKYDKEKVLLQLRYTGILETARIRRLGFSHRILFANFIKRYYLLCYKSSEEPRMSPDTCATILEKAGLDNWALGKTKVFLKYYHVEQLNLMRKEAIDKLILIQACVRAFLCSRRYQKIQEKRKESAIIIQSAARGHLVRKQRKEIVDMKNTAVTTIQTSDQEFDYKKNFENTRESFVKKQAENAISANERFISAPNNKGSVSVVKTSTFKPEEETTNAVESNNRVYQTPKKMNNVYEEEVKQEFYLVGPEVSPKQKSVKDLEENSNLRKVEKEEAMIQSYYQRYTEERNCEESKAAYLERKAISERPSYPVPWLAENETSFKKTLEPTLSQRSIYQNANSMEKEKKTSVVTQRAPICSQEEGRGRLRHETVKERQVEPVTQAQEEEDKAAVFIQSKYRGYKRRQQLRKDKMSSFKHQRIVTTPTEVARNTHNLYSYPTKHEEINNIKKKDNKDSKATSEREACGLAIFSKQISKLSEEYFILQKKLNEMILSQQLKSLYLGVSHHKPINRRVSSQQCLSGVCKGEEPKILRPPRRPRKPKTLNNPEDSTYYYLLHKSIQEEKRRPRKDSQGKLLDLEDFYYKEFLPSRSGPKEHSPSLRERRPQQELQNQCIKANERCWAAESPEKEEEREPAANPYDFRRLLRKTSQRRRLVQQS
For assay [7], the target named is NT-3 growth factor receptor (Homo sapiens) (UniProt Q16288). Nature of the assay: Inhibition of TRKC (unknown origin) assessed as residual activity at 1000 nM by KINOMEscan analysis relative to control.
Chain of NT-3 growth factor receptor (Homo sapiens) (Q16288 32-839 limits assumed): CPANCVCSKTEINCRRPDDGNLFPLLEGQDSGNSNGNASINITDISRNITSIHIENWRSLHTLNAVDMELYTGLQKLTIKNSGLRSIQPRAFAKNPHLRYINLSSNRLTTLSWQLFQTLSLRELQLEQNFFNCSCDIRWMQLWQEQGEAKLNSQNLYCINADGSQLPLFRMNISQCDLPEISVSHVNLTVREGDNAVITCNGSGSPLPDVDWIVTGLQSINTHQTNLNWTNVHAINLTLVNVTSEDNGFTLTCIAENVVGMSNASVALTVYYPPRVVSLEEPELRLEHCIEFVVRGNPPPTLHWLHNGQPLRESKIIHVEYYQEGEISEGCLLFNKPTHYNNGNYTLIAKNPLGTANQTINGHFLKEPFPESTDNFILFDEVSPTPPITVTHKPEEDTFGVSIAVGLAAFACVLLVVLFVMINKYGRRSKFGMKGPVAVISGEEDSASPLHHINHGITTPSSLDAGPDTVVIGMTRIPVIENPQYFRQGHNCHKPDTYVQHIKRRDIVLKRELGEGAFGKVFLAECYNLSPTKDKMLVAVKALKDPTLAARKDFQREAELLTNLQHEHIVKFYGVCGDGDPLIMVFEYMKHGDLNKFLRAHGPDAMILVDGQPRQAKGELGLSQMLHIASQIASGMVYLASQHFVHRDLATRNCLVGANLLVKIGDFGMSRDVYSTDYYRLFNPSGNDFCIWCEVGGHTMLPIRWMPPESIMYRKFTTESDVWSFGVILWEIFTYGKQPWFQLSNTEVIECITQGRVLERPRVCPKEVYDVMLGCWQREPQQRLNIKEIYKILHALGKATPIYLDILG
The subject of assay [8] is Epidermal growth factor receptor (Homo sapiens), P00533 [L858R,T790M]. Nature of the assay: Inhibition of EGFR L858R/T790M mutant (unknown origin) assessed as residual activity at 1000 nM by KINOMEscan analysis relative to control.
Assay [9] deals with Homeodomain-interacting protein kinase 1 (Homo sapiens) (UniProt Q86Z02). Nature of the assay: Inhibition of HIPK1 (unknown origin) assessed as residual activity at 1000 nM by KINOMEscan analysis relative to control.
Chain of Homeodomain-interacting protein kinase 1 (Homo sapiens) (Q86Z02 whole entry, looked up): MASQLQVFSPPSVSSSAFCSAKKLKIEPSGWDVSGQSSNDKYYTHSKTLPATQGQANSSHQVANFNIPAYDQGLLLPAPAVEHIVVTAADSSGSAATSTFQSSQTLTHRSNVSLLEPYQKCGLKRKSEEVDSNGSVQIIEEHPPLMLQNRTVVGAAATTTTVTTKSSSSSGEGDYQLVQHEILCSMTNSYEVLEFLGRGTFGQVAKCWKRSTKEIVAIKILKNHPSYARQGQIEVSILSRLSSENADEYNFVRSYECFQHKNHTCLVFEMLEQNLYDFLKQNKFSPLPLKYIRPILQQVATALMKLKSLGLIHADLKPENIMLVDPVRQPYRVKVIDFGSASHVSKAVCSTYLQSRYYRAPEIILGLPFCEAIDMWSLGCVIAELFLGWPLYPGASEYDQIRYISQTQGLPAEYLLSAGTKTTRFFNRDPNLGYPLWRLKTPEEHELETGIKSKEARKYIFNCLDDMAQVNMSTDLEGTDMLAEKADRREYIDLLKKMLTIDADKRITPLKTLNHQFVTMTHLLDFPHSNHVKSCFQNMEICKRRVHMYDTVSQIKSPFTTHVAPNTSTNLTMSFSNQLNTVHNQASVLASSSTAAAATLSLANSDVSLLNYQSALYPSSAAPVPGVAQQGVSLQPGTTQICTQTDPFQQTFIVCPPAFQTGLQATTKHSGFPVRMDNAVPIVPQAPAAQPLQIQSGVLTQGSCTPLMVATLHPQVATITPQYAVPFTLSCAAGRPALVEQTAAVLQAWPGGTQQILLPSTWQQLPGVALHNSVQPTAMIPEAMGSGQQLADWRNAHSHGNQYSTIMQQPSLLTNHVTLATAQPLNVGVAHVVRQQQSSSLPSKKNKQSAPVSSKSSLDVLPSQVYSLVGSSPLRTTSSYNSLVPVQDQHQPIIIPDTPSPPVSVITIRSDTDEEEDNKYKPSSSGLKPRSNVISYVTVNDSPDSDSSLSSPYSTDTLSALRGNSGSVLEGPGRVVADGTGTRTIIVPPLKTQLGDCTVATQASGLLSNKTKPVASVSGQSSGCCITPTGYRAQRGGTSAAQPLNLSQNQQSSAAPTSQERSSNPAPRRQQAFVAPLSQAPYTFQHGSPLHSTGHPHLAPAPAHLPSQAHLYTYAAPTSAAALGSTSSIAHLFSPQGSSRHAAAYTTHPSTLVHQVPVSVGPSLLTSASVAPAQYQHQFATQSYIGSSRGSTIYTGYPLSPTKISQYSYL
For assay [10], the target named is Mast/stem cell growth factor receptor Kit (Homo sapiens) (UniProt P10721). Nature of the assay: Inhibition of KIT (unknown origin) assessed as residual activity at 1000 nM by KINOMEscan analysis relative to control.
Chain of Mast/stem cell growth factor receptor Kit (Homo sapiens) (P10721 whole entry): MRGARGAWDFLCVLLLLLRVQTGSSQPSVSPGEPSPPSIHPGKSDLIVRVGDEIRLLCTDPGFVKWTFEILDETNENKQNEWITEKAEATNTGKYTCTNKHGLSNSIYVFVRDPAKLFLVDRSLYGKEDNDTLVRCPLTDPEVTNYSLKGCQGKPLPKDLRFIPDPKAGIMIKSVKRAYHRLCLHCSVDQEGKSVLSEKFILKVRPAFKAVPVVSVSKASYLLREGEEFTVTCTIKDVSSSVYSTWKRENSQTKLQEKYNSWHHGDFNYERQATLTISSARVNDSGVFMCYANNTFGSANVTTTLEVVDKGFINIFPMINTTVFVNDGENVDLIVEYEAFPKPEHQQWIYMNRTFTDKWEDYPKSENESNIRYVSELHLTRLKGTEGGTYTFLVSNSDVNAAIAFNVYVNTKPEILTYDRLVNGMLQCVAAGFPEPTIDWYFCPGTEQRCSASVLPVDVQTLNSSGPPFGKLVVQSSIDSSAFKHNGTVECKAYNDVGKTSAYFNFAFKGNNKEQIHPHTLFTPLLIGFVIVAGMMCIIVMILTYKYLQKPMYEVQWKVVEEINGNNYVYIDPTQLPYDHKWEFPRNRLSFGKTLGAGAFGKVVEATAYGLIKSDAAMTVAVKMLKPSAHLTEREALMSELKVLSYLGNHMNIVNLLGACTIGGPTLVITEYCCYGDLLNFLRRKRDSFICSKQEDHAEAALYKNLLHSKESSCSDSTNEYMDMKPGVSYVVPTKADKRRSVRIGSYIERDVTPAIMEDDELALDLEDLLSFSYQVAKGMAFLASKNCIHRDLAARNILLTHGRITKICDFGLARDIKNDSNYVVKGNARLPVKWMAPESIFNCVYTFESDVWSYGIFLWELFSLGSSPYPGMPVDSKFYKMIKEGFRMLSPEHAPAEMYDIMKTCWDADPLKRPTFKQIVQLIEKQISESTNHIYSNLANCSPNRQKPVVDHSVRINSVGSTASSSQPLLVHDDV

Molecules are shown by their SMILES.

Chain of Casein kinase I isoform gamma-1 (Homo sapiens) (Q9HCP0 whole entry, looked up, canonical isoform): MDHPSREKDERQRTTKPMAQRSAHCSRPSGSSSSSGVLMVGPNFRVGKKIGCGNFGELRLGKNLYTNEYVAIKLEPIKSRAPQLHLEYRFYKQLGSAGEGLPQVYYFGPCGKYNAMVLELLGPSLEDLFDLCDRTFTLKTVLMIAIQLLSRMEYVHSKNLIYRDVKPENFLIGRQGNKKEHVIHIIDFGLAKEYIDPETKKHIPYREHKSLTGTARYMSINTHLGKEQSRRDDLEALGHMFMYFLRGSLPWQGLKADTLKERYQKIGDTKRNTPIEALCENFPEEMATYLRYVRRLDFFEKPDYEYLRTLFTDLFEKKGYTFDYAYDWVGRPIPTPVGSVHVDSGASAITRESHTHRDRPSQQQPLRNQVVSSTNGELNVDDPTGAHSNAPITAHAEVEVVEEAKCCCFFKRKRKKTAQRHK

As for `COc1cc2nc(C)nc(N[C@H](C)c3cccc(-c4cn[nH]c4)c3)c2cc1OC`, the Activity in assay [1] came to 96%; in assay [2] it was 56%; in assay [3], 70%; in assay [4] it was 97%; in assay [5], 82%; in assay [6], 92%. For the same molecule, the Activity in assay [7] was 88%; in [8], 92%; in [9], 67%; in assay [10], 99%.
For `COc1cc2ncnc(N[C@H](C)c3cccc4ccccc34)c2cc1OC`, the Activity turned out to be 100% in assay [1]; 100% in assay [2]; 100% in assay [3]; 86% in [4]; 99% in assay [5]; 97% in assay [6]. The Activity in [7] amounted to 95%; in assay [8], 74%; in assay [9], 89%; in assay [10] it was 100%.

For the origin of these results see ChEMBL document CHEMBL5678818, “Discovery of potent SOS1 inhibitors that block RAS activation via disruption of the RAS-SOS1 interaction” (Proc Natl Acad Sci U S A, 2019).
